Laboratory results published in the supplement of paper PMC13380429.
Structures can show the parent of a compound that is named as a salt.

Columns and labels:
Conditions in all cases: 72 h
Caco-2 [1] = test: cell viability relative to DMSO; higher = less toxic
Calu-3 [2] = test: as above
HepG2 [3] = test: as above
U2OS [4] = test: as above
Vero E6 [5] = test: as above
Caco-2 [6] = test: relative viability EC50 (midpoint between 100% and the lowest measured viability); higher = less toxic
Calu-3 [7] = test: as above
HepG2 [8] = test: as above
U2OS [9] = test: as above
Vero E6 [10] = test: as above
Caco-2 [11] = test: drug sensitivity score (DSS) for viability; higher = more toxic; extreme values may be limits of the assay
Calu-3 [12] = test: as above
HepG2 [13] = test: as above
U2OS [14] = test: as above
Vero E6 [15] = test: as above

Compound	cell viability (Caco-2 [1]; 1 nM) [%]	cell viability (Caco-2 [1]; 10 nM) [%]	cell viability (Caco-2 [1]; 100 nM) [%]	cell viability (Caco-2 [1]; 1000 nM) [%]	cell viability (Caco-2 [1]; 10000 nM) [%]	cell viability (Calu-3 [2]; 1 nM) [%]	cell viability (Calu-3 [2]; 10 nM) [%]	cell viability (Calu-3 [2]; 100 nM) [%]	cell viability (Calu-3 [2]; 1000 nM) [%]	cell viability (Calu-3 [2]; 10000 nM) [%]	cell viability (HepG2 [3]; 1 nM) [%]	cell viability (HepG2 [3]; 10 nM) [%]	cell viability (HepG2 [3]; 100 nM) [%]	cell viability (HepG2 [3]; 1000 nM) [%]	cell viability (HepG2 [3]; 10000 nM) [%]	cell viability (U2OS [4]; 1 nM) [%]	cell viability (U2OS [4]; 10 nM) [%]	cell viability (U2OS [4]; 100 nM) [%]	cell viability (U2OS [4]; 1000 nM) [%]	cell viability (U2OS [4]; 10000 nM) [%]	cell viability (Vero E6 [5]; 1 nM) [%]	cell viability (Vero E6 [5]; 10 nM) [%]	cell viability (Vero E6 [5]; 100 nM) [%]	cell viability (Vero E6 [5]; 1000 nM) [%]	cell viability (Vero E6 [5]; 10000 nM) [%]	relative viability EC50 (Caco-2 [6]) [µM]	relative viability EC50 (Calu-3 [7]) [µM]	relative viability EC50 (HepG2 [8]) [µM]	relative viability EC50 (U2OS [9]) [µM]	relative viability EC50 (Vero E6 [10]) [µM]	drug sensitivity score (Caco-2 [11])	drug sensitivity score (Calu-3 [12])	drug sensitivity score (HepG2 [13])	drug sensitivity score (U2OS [14])	drug sensitivity score (Vero E6 [15])
Nc1ncnc2c1ncn2[C@H]1O[C@@H](C(=O)N2CCN(CC(=O)Nc3cccc4c3CNC4=O)CC2)[C@H](O)[C@@H]1O [EB-47]	97.8	103	104	94.8	92.6	92	102	91.3	104	85.7	102	96.3	103	102	93.9	99.4	107	102	100	96.7	102	98.6	94.7	92.4	97.6	> 10	> 10	> 10	> 10	> 10	0	0.1	0	0	0
CCSC(=N)N [EIT-hydrobromide]	97.7	98.1	91.1	102	107	108	96.8	96.9	104	103	96.9	90	94.3	102	103	94.2	101	97.5	100	103	94.2	99.4	96.9	95.8	105	> 10	> 10	> 10	> 10	> 10	0	0	0	0	0
CNC(=O)c1cc2c(cn1)[nH]c1ccccc12 [FG-7142]	97.7	104	92.2	89.8	88.2	96.9	91.8	98.2	100	103	101	88.4	107	96.3	110	98.2	100	96.9	100	96.9	102	95.7	98.2	100	101	> 10	> 10	> 10	> 10	> 10	0.8	0	0	0	0
CC(=O)N1CCC(NC(=O)c2ccc(F)cc2)CC1 [FK-962]	101	97.4	104	108	114	108	98.7	101	99.5	95.8	107	104	134	92.6	108	97.8	97.9	98.6	103	94.4	98.1	87.7	98.3	88.5	94.3	> 10	> 10	> 10	> 10	> 10	0	0	0	0	0
c1ccc([C@@H]2C[C@H]2NC2CCNCC2)cc1 [GSK-LSD-1]	98.5	95.2	96.5	87.1	92.2	102	88	96.8	95.8	93.4	92.6	96.4	93	98.8	97.2	102	98.1	104	94.6	104	97.1	99.4	96.4	101	95.6	> 10	> 10	> 10	> 10	> 10	0	0	0	0	0
CC(C)[C@@H](CN1CC[C@@](C)(c2cccc(O)c2)[C@@H](C)C1)NC(=O)[C@H]1Cc2ccc(O)cc2CN1 [JDTic]	91.9	95.2	96.7	93.3	98.5	103	103	95	109	83.2	100	95.6	99.4	101	99.6	96.7	104	95.5	101	102	99.4	98	97.6	95.1	102	> 10	> 10	> 10	> 10	> 10	0	0.2	0	0	0
COC(=O)[C@@H](N)CCCNC(=N)N[N+](=O)[O-] [L-NAME]	94.6	97.3	94.4	97.8	106	96	106	99.6	94.7	114	97.4	104	94.5	95.4	116	101	97.9	103	101	110	97.7	96.6	99.9	98.6	105	> 10	> 10	> 10	> 10	> 10	0	0	0	0	0
CC(=O)NCCNc1cc(Cl)nn2c(-c3cccc(S(=O)(=O)N(C)C)c3)c(C)nc12 [MI-14]	99.1	92.2	99.5	93.1	83.3	99.1	96.2	98.2	102	75.8	102	89.4	87.4	77.2	78.8	98.8	101	99.6	98.2	89.5	95.6	98	96.5	93.2	93.5	> 10	> 10	> 10	> 10	> 10	0.9	0.8	4.4	0	0
CC(C)(C)CCN1C[C@@H]2[C@@H](CNC(=O)c3cc(Cl)cc(Cl)c3)[C@@H]2C1 [ML218]	104	97.4	97.4	92.8	88.6	108	109	104	99.6	90.7	95.2	108	96.3	96.9	92.7	99.7	97.9	96.8	102	93.1	101	101	103	100	91.8	> 10	> 10	> 10	> 10	> 10	0	0	0	0	0
c1cnc(NCc2ccc(CNc3ncccn3)cc2)nc1 [MSX-122]	92.9	100	107	112	99.2	104	100	109	99.4	113	90.6	103	102	92.3	101	94.7	103	106	99.4	99.8	101	98.6	100	103	99.1	> 10	> 10	> 10	> 10	> 10	0	0	0	0	0
CC(C)(O)CS(=O)(=O)Nc1ccc2c(c1)CCN(C(=O)COc1cccnc1)C2 [Nampt-IN-1]	100	99.8	84.5	4	3.7	93.2	88.1	50.8	6.2	5.7	98.2	100	50.2	20.1	16.2	108	104	6.2	-0.1	0.1	105	103	104	3.3	2.4	0.193	0.0828	0.0823	0.0392	0.348	20	22.9	21.2	29.3	17.1
CC(=O)OC[C@H](N)C(=O)O [O-acetyl-L-serine]	104	109	90.3	106	94.9	111	97.6	105	92.5	97.1	115	103	106	110	95.2	104	104	99.3	105	98.9	114	89.8	99.2	103	104	> 10	> 10	> 10	> 10	> 10	0	0	0	0	0
O=S(=O)(O)c1ccc(-c2c3nc(c(-c4ccc(S(=O)(=O)O)cc4)c4ccc([nH]4)c(-c4ccc(S(=O)(=O)O)cc4)c4nc(c(-c5ccc(S(=O)(=O)O)cc5)c5ccc2[nH]5)C=C4)C=C3)cc1 [TPPS4]	107	87.2	91.4	96.4	101	94.2	93.1	109	99	90.1	100	102	104	107	80.5	101	94.2	105	105	91.6	110	102	93.6	95.7	81.9	> 10	> 10	> 10	> 10	> 10	0	0	0.3	0	0.7
COc1ccc(CCN(C)CCc2ccc(OC)c(OC)c2)cc1OC [YS-035]	95.6	100	90.6	90.4	97.4	98.2	106	93.9	95.5	102	101	103	105	96.3	110	99.3	106	96.7	99.9	96.6	100	99.9	98.3	97.8	101	> 10	> 10	> 10	> 10	> 10	0	0	0	0	0
